The subject of test [1] is SD rat adjuvant arthritis (AA) model. Description: SD rat adjuvant arthritis (AA) model, arthritis index. It is filed as in vivo. The procedure: In this example, SD rat adjuvant arthritis (AA) model (purchased from the Experimental Animal Center of Anhui Province) was used. PCI-32765 and methotrexate (MTX) were used as positive control (both purchased from Shanghai Chemexpress). The therapeutic effect of Compound 1 on AA rats was studied via the combination of in vivo and in vitro administration. 10 mg/nal of complete Freund's adjuvant (CFA, purchased from Shanghai Chemexpress) was mixed well, and 0.1 ml of CFA was intracutaneously injected into each rat at right posterior plantar to induce inflammation. The normal group was injected with saline via the same method. On the 17th day, the successful modeling male SD rats were randomly divided into 7 groups with 10 rats in each group, namely the model group, the small/medium/large dose of Compound 1 group (12.5, 25, 50 mg/kg/per administration, intraperitoneal injection, one administration per day for 16 days), the Compound 19 group (25 mg/kg/per administration, intraperitoneal injection, one administration per day for 16 days), the positive control PCI-32765 group (25 mg/kg/per administration, intraperitoneal injection, one administration per day for 16 days), the MTX group (0.5 mg/kg, intragastrical, one administration every 3 days, totally 6 times). The rats in the model group were intraperitoneally injected with the same amount of DMSO solution.

The subject of test [2] is EB virus infected human peripheral lymphocyte cells JVM-2. Kind of test: Cancer cell growth, Cell Titer-Glo. It is filed as cell-based. To be noted: JVM-2, 72 hrs, read-out: Half inhibitory concentration IC50. An excerpt:
(§1) We further assessed the selectivity of Compound 1 to inhibit the proliferation of cancer cells, by testing the effect of Btk inhibitor on the growth of cancer cells. In the example, we used B-lymphoma cell Ramos, cervical cancer cells HeLa, prostate cancer cells DU145, RV-1 and C4-2, colon cancer cells HCT116, blood cancer cells K562, B-cell lymphoma cells U2932, diffuse large B-cell lymphoma cells OCI-LY10, diffuse histiocytic lymphoma cells SU-DHL-2, diffuse large B-cell lymphoma cells TMD8, human non-small cell lung cancer cells H1975 (expressing EGFR L858R/T790M double mutant gene), human lung adenocarcinoma cells A549 (expressing wild-type EGFR gene), human non-small cell lung cancer cells H460 (expressing wild-type EGFR gene), mantel cell lymphoma (MCL) cells Z-138, EB virus infected human peripheral lymphocyte cells JVM-2, MCL cells REC-1, leukemia cells AML-3, acute promyelocytic leukemia cell line NB-4(Lu+), MDS-RAEB (myelodysplastic syndrome-excessive blasts) cell line SKM-1 human leukemia cell Nomo-1, human B-cell leukemia cell line NALM6, human leukocyte leukemia cells HEL, human T-cell lymphoma cells PF-382, acute myelocytic leukemia (AML) cell line MOLM14, AML cell line MOLM13, human Burkitt's lymphoma cells Namalwa, mouse pro-B cells BaF3, all of where were purchased from ATCC. Also used were mouse TEL-EGFR-BaF3 (stably expressing TEL-EGFR activated kinase), mouse TEL-EGFR/T790-BaF3 cells (stably expressing TEL-EGFR-T790M activated mutant kinase), mouse TEL-EGFR/L858R-BaF3 cells (stably expressing TEL-EGFR-L858R activated mutant kinase), mouse TEL-EGFR/T790/L858R-BaF3 (stably expressing TEL-EGFR-T790M/L858R activated mutant kinase), mouse TEL-BMX-BaF3 cells (stably expressing TEL-BMX activated kinase), mouse TEL-JAK1-BaF3 cells (stably expressing TEL-JAK1 activated kinase), mouse TEL-JAK2-BaF3 cells (stably expressing TEL-JAK2 activated kinase), mouse TEL-JAK3-BaF3 cells (stably expressing TEL-JAK3 activated kinase), where were all established by our laboratory via the following method: the kinase domain sequences of human EGFR, BMX, JAK1, JAK2, JAK3 were amplified respectively by PCR, and these kinase were inserted into the MSCV-Puro vectors with N-terminal TEL segment (Clontech); if there was a mutation, the mutation of the corresponding site was conducted by Site-Directed Mutagenesis kit (Stratagene); the resultants were stably transfected into mouse BaF3 cells by the means of retrovirus, and the IL-3 growth factors were removed, and eventually the EGFR, BMX, JAK1, JAK2, JAK3-transferred protein dependent cell lines were obtained.
(§2) In the example, different concentrations (0.000508 μM, 0.00152 μM, 0.00457 μM, 0.0137 μM, 0.0411 μM, 0.123 μM, 0.370 μM, 1.11 μM, 3.33 μM, 10 μM) of Compound 1 and Compound 19 were added into above cells, and were incubated for 72 hrs. The number of viable cells was determined by quantitating ATP in viable cells using Cell Titer-Glo® (Promega, U.S.) chemiluminescence cell viability assay kit.
(In general: Cellular ATP, detected with luciferase, serves as a proxy for viable cell number.)

Test [3] has as its system diffuse large B-cell lymphoma cells TMD8. Description: Cancer cell growth, Cell Titer-Glo. To be noted: Homo sapiens; TMD8, 72 hrs; read-out: Half inhibitory concentration IC50. The class given is cell-based.
Description: as §1, §2

In test [4] the test system is human leukemia cell Nomo-1. Kind of test: Cancer cell growth, Cell Titer-Glo. It is filed as cell-based. To be noted: Nomo-1, 72 hrs, read-out: Half inhibitory concentration IC50.
Description: as §1, §2

Test [5] concerns acute myelocytic leukemia (AML) cell line MOLM14. Description: Cancer cell growth, Cell Titer-Glo. It is filed as cell-based. To be noted: Homo sapiens, MOLM-14; MOLM14, 72 hrs; read-out: Half inhibitory concentration IC50.
Description: as §1, §2

Another test deals with MCL cells REC-1. Description: Cancer cell growth, Cell Titer-Glo. The class given is cell-based. To be noted: Homo sapiens, Rec1; REC-1, 72 hrs; read-out: Half inhibitory concentration IC50.
Description: as §1, §2

Test [6] concerns mantel cell lymphoma (MCL) cells Z-138. Description: Cancer cell growth, Cell Titer-Glo. The class given is cell-based. The note with it: Homo sapiens; Z-138, 72 hrs; read-out: Half inhibitory concentration IC50.
Description: as §1, §2

Test [7] concerns human Burkitt's lymphoma cells Namalwa. Description: Cancer cell growth, Cell Titer-Glo. To be noted: Burkitts lymphoma cell, 72 hrs, read-out: Half inhibitory concentration IC50. It is filed as cell-based.
Description: as §1, §2

The test system of test [8] is prostate cancer cells C4-2. Description: Cancer cell growth, Cell Titer-Glo. The class given is cell-based. To be noted: C4-2, 72 hrs; read-out: Half inhibitory concentration IC50.
Description: as §1, §2

For test [9], the system named is B-cell lymphoma cells U2932. Kind of test: Cancer cell growth, Cell Titer-Glo. It is filed as cell-based. To be noted: Homo sapiens; U2932, 72 hrs; read-out: Half inhibitory concentration IC50.
Description: as §1, §2

Test [10] concerns prostate cancer cells RV-1. Description: Cancer cell growth, Cell Titer-Glo. It is filed as cell-based. The note with it: RV-1, 72 hrs; read-out: Half inhibitory concentration IC50.
Description: as §1, §2

In the next test the test system is AML cell line MOLM13. Description: Cancer cell growth, Cell Titer-Glo. It is filed as cell-based. The note with it: Homo sapiens, MOLM-13; MOLM13, 72 hrs; read-out: Half inhibitory concentration IC50.
Description: as §1, §2

Test [11] concerns human leukocyte leukemia cells HEL. Description: Cancer cell growth, Cell Titer-Glo. It is filed as cell-based. The note with it: 72 hrs, read-out: Half inhibitory concentration IC50.
Description: as §1, §2

Test [12] has as its system human T-cell lymphoma cells PF-382. Description: Cancer cell growth, Cell Titer-Glo. The note with it: PF-382, 72 hrs, read-out: Half inhibitory concentration IC50. It is filed as cell-based.
Description: as §1, §2

As to `C=CC(=O)Nc1cc(-n2c(=O)ccc3cnc4ccc(-n5cccn5)cc4c32)ccc1C` [Compound 1, N-(2-methyl-5-(2-oxo-9-(1H-pyrazol-1-yl)benzo[H][1,6]naphthyridin-1(2H)-yl)phenyl)acrylamide], the “effect on arthritis index of rats compared with the model group” value in test [1] (12.5 mg/kg intraperitoneal once per day, starting from day 21) was “significantly reduced”. Further, the “effect on arthritis index of rats” value in test [1] (12.5 mg/kg intraperitoneal once per day, starting from day 24) was “significantly reduce”. Further, the IC50 came to 3.4 µM in test [2]; 3.43 µM in [3]; 4.9 µM in test [4]; 1.5 µM in test [5]; 1.6 µM in the test with MCL cells REC-1; 8.5 µM in test [6]. For the same compound, the IC50 was 4.5 µM in test [7]; greater than 10 µM in test [8]; 1.15 µM in test [9]; greater than 10 µM in test [10]; 0.59 µM in the test on AML cell line MOLM13; 1.8 µM in [11]. Further, in test [12], the IC50 is 3.49 µM.

In the case of `CCC(=O)Nc1cc(-n2c(=O)ccc3cnc4ccc(-n5cccn5)cc4c32)ccc1C` [Compound 19, N-(2-methyl-5-(2-oxo-9-(1H-pyrazol-1-yl)benzo[H][1,6]naphthyridin-1(2H)-yl)phenyl) propionamide], the “effect on the rat arthritis index” value in test [1] (25 mg/kg intraperitoneal once per day for 16 days) is given as “little effect”. Further, the IC50 (in test [2]; in [3]; in test [4]; in test [5]; in the test with MCL cells REC-1; in [6]) was greater than 10 µM in each case. In addition, the IC50 (in [7]; in [8]; in test [9]; in test [10]; in the test with AML cell line MOLM13; in [11]) was greater than 10 µM each time. Also, in [12], the IC50 was greater than 10 µM.

The values are drawn from patent US9814709B2, “Bruton's tyrosine kinase inhibitor” (HEFEI INSTITUTES OF PHYSICAL SCIENCE, CHINESE ACADEMY OF …, priority 2014, dated 2017).
